Measurements as given in patent publication US20170081338A1, “SUBSTITUTED HETEROARYL COMPOUNDS AND METHODS OF USE” (Sunshine Lake Pharma Co., Ltd., priority 2015, published 2017).

Experiments:
[1] = Pharmacokinetics after intravenous and oral administration in rats; assay type: in vivo; conditions: for Clearance (CL) after iv dosing / AUC(0-t) / half-life / Vd: dose 1 mg/kg, iv dosing; for F: oral bioavailability; for AUC(0-t) / half-life / Vd: rat, plasma; for Vd: read-out: Vss
How it was run: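 Compounds dosed IV at 0.5, 1 or 2 mg/kg and orally at 0.5, 1, 5 or 10 mg/kg in rats, as solution, suspension or capsule formulations. Serial blood sampled out to 24 h and plasma stored frozen. Plasma levels quantified by LC/MS/MS in ESI MRM mode.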

[2] = Compound stability in rat liver microsomes; assay type: in vitro ADME; conditions: pH 7.4; for half-life at 5 μM: rat liver microsomes 0.5 mg protein/mL, compound 5 μM, NADPH, 37° C., read-out: Rat T1/2; for CLint scaled at 5 μM: rat liver microsomes, in vivo CLint extrapolated
How it was run: (§1)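 LC/MS/MS read-out of parent remaining, as % of t=0, after 0, 5, 10, 15, 30 and 60 min at 37° C. Mix: microsomes 0.5 mg/mL, test compound 5 μM, NADPH 1.0 mM, phosphate pH 7.4. Denatured microsomes served as negative control. In vivo CLint extrapolated.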

[3] = Compound stability in human liver microsomes; assay type: in vitro ADME; conditions: pH 7.4; for half-life at 5 μM: human liver microsomes 0.5 mg protein/mL, compound 5 μM, NADPH, 37° C., read-out: Human T1/2; for CLint scaled at 5 μM: human liver microsomes, in vivo CLint extrapolated
How it was run: as §1

Clearance (CL) after iv dosing [1] [mL/min/kg] | F [1] [%] | AUC(0-t) [1] [ng·h/mL] | half-life [1] [min] | Vd [1] [L/kg] | half-life at 5 μM [2] [min] | CLint scaled at 5 μM [2] [mL/min/kg] | half-life at 5 μM [3] [min] | CLint scaled at 5 μM [3] [mL/min/kg] | SMILES
18.3 | 101.3 | 908 | 69 | 0.63 | 67.3 | 36.9 | 37 | 47 | CC(C)CS(=O)(=O)N[C@H]1COC2C1OC[C@H]2Nc1nc(Nc2cnn(C)c2)ncc1Cl (stereo partly drawn) [Ex. 2, N-((3S,6R)-6-((5-chloro-2-((1-methyl-1H-pyrazol-4-yl)amino)pyrimidin-4-yl)amino)hexahydrofuro[3,2-b]furan-3-yl)-2-methylpropane-1-sulfonamide]
30.3 | 84.2 | 547 | 18 | 0.83 | 69.8 | 35.6 | 83.4 | 20.8 | Cn1cc(Nc2ncc(Cl)c(N[C@@H]3COC4C3OC[C@@H]4NS(=O)(=O)CC3CC3)n2)cn1 (stereo partly drawn) [Ex. 25, N-((3S,6R)-6-((5-chloro-2-((1-methyl-1H-pyrazol-4-yl)amino)pyrimidin-4-yl)amino)hexahydrofuro[3,2-b]furan-3-yl)-1-cyclopropylmethanesulfonamide]
37.8 | 62.7 | 442 | 35.4 | 0.75 | 40.9 | 60.7 | 33.6 | 51.7 | Cn1cc(Nc2ncc(Cl)c(N[C@@H]3COC4C3OC[C@@H]4NS(=O)(=O)CC(C)(C)C#N)n2)cn1 (stereo partly drawn) [Ex. 26, N-((3S,6R)-6-((5-chloro-2-((1-methyl-1H-pyrazol-4-yl)amino)pyrimidin-4-yl)amino)hexahydrofuro[3,2-b]furan-3-yl)-2-cyano-2-methylpropane-1-sulfonamide]
28.8 | 66.1 | 581 | 62.4 | 0.85 | 56.5 | 44 | 190 | 9.16 | Cn1cc(Nc2ncc(Cl)c(N[C@@H]3COC4C3OC[C@@H]4NS(=O)(=O)CC(F)(F)F)n2)cn1 (stereo partly drawn) [Ex. 27, N-((3S,6R)-6-((5-chloro-2-((1-methyl-1H-pyrazol-4-yl)amino)pyrimidin-4-yl)amino)hexahydrofuro[3,2-b]furan-3-yl)-2,2,2-trifluoroethanesulfonamide]
